One test deals with T1, c-kit mutant D816V (Homo sapiens, UniProt P10721, D816V/DEL694-753).
T1 construct: residues 551-934, kinase insertion domain residues 694-753 deleted; 6x-histidine (N); made in house; host or cells: E. coli Arctic Express (DE3) RIL (Stratagene)
The test can be described thus: c-Kit mutant D816V biochemical assay, AlphaScreen. The following applies: c-kit D816V biochemical inhibitory activity; read-out: Biochemical activity (IC50 μM) Kit D816V. An outline of the steps: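 Eight-point, threefold compound series incubated 30 min at room temperature with E. coli-produced D816V kinase, 10 μM ATP, Mg2+/Mn2+ HEPES buffer pH 7.2 and 5% DMSO. After EDTA stop, streptavidin and anti-phosphotyrosine (PY20) AlphaScreen beads gave the read-out, and IC50 was fitted from the concentration–signal curve.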
Background: Bead proximity is the source of the signal in Alpha formats.

Another test concerns the target T2, c-kit kinase (Homo sapiens, UniProt P10721).
T2 construct: The c-kit (or kinase domain thereof) is an active kinase in AlphaScreen; poly-Histidine tag (in-house protein only) (cleaved yes); host or cells: E. coli BL21(DE3)RIL, co-expressed with PTP1B
The experiment in a line: c-Kit biochemical assay, AlphaScreen, 10 μM ATP. The settings on record: c-kit biochemical inhibitory activity; read-out: Biochemical activity (IC50 μM) Kit. An outline of the steps:
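His-tagged c-Kit expressed in E. coli with co-expressed PTP1B (dephosphorylated), tag removed; 0.1 ng per reaction with biotinylated-peptide substrate in 50 mM HEPES pH 7.2, 5 mM MgCl2, 5 mM MnCl2, 5% DMSO, 10 μM ATP, 1 h at room temperature. Phosphorylation detected by AlphaScreen (streptavidin donor, PY20 acceptor beads); IC50 from 8-point 1:3 dilution series.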

In patent publication US10227357B2, “Compounds and methods for kinase modulation, and indications therefor” (Plexxikon Inc., priority 2012, dated 2019) one finds IC50 data, which are given here for 26 compounds.

T1 sequence (P10721 with tags, fused parts or gaps DEL694-753/D816V): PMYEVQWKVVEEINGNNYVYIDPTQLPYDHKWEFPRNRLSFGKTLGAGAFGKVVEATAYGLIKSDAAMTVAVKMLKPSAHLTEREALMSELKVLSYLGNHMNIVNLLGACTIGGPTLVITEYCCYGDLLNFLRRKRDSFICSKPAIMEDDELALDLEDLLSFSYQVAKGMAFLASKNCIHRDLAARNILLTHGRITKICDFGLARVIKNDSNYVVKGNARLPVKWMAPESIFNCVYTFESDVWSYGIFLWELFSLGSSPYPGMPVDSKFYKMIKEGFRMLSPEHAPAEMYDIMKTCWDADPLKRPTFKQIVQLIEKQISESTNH
T2 sequence (P10721 26-976): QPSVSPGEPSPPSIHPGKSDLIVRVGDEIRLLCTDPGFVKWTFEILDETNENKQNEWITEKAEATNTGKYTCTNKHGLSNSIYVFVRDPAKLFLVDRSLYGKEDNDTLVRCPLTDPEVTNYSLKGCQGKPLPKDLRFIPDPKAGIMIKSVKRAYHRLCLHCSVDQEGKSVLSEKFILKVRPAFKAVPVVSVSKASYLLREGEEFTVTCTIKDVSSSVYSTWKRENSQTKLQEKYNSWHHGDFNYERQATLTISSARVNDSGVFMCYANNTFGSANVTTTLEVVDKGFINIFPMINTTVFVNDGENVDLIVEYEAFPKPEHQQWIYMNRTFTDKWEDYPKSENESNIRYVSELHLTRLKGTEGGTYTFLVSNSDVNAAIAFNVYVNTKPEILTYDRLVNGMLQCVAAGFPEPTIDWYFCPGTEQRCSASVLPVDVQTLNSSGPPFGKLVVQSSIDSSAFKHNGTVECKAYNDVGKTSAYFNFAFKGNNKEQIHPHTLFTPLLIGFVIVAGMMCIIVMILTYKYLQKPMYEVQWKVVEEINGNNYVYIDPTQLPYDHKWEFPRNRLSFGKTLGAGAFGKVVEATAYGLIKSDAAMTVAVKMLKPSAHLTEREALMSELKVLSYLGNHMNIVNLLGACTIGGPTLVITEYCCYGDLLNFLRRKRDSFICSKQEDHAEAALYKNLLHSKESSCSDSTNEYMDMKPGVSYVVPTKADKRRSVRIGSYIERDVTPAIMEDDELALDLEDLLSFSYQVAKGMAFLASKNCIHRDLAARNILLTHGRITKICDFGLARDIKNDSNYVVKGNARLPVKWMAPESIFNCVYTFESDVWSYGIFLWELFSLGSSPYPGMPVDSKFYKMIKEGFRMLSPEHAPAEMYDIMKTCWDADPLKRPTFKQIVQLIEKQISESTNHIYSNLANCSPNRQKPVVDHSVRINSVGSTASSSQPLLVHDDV

Broadly, the IC50 is the concentration needed to halve the response being measured. As to `Cc1c(-c2cc3ncnc(N4CCN(C(=O)NCc5ccc(F)cc5)CC4)c3s2)cnn1C` [P-0620, 4-[6-(1,5-dimethylpyrazol-4-yl)thieno[3,2-d]pyrimidin-4-yl]-N-[(4-fluorophenyl)methyl]piperazine-1-carboxamide], the values for the IC50 on c-kit mutant D816V and at c-kit kinase were 0.0001 to 1 µM and 1 to 10 µM, respectively.

`Cn1cc(-c2cc3ncnc(-c4ccc(N)nc4)c3s2)cn1` [P-0621, 5-[6-(1-methylpyrazol-4-yl)thieno[3,2-d]pyrimidin-4-yl]pyridin-2-amine]: the IC50 at c-kit mutant D816V and on c-kit kinase was 1 to 10 µM in each case.

On to `Cc1cc2ncnc(-c3ccc(NS(C)(=O)=O)cc3)c2s1` [P-0622, N-[4-(6-methylthieno[3,2-d]pyrimidin-4-yl)phenyl]methanesulfonamide], for which the IC50 lay within 1 to 10 µM on c-kit mutant D816V and 10 to 200 µM at c-kit kinase.

As to `Cc1ccc(S(=O)(=O)Nc2ccc(-c3ncnc4cc(C)sc34)cc2)cc1` [P-0623, 4-methyl-N-[4-(6-methylthieno[3,2-d]pyrimidin-4-yl)phenyl]benzenesulfonamide], the IC50 on c-kit mutant D816V fell in the range of 0.0001 to 1 µM; on c-kit kinase, 1 to 10 µM.

For `O=C(NCc1ccc(F)cc1)N1CCN(c2ncnc3cc(-c4cnn(CCN5CCOCC5)c4)sc23)CC1` [P-0624, N-[(4-fluorophenyl)methyl]-4-[6-[1-(2-morpholinoethyl)pyrazol-4-yl]thieno[3,2-d]pyrimidin-4-yl]piperazine-1-carboxamide], the IC50 fell in the range of 0.0001 to 1 µM on c-kit mutant D816V and 1 to 10 µM at c-kit kinase.

As to `Cn1cc(-c2cc3ncnc(N4CCN(C(=O)NCc5ccccc5)CC4)c3s2)cn1` [P-0626, N-benzyl-4-[6-(1-methylpyrazol-4-yl)thieno[3,2-d]pyrimidin-4-yl]piperazine-1-carboxamide], the IC50 on c-kit mutant D816V is 1 to 10 µM; on c-kit kinase, 10 to 200 µM.

Turning to `O=C(NCc1ccc(F)cc1)N1CCN(c2ncnc3ccsc23)CC1` [P-0638, N-[(4-fluorophenyl)methyl]-4-thieno[3,2-d]pyrimidin-4-yl-piperazine-1-carboxamide], the IC50 at c-kit mutant D816V and at c-kit kinase was 10 to 200 µM each time.

`Cc1cc2c(N3CCN(C(=O)N[C@@H](C)c4cccc(Cl)c4)C(C)(C)C3)ncnc2[nH]1` [P-0641, N-[(1S)-1-(3-chlorophenyl)ethyl]-2,2-dimethyl-4-(6-methyl-7H-pyrrolo[2,3-d]pyrimidin-4-yl)piperazine-1-carboxamide]: the IC50 on c-kit mutant D816V fell in the range of 0.0001 to 1 µM; at c-kit kinase it was 10 to 200 µM.

For the compound `C[C@H](NC(=O)N1CCN(c2ncnc3[nH]c(-c4ccc(F)cc4)cc23)CC1(C)C)c1ccc(F)cc1` [P-0642, N-[(1S)-1-(4-fluorophenyl)ethyl]-4-[6-(4-fluorophenyl)-7H-pyrrolo[2,3-d]pyrimidin-4-yl]-2,2-dimethyl-piperazine-1-carboxamide], the IC50 fell in the range of 0.0001 to 1 µM at c-kit mutant D816V and 1 to 10 µM on c-kit kinase.

As for `COc1cc(-c2cc3c(N4CCN(C(=O)N[C@@H](C)c5ccc(F)cc5)C(C)(C)C4)ncnc3[nH]2)ccn1` [P-0643], the IC50 on c-kit mutant D816V was in the range of 0.0001 to 1 µM; at c-kit kinase it was 1 to 10 µM.

Turning to `Cc1cc2c(N3CCN(C(=O)N[C@@H](C)c4ccc(F)cc4)C(C)(C)C3)ncnc2[nH]1` [P-0644, N-[(1S)-1-(4-fluorophenyl)ethyl]-2,2-dimethyl-4-(6-methyl-7H-pyrrolo[2,3-d]pyrimidin-4-yl)piperazine-1-carboxamide], the IC50 at c-kit mutant D816V is 1 to 10 µM; on c-kit kinase, 10 to 200 µM.

Regarding `Cc1cc2c(N3CCN(C(=O)N[C@@H](C)c4cccc(OC(F)F)c4)C(C)(C)C3)ncnc2[nH]1` [P-0645, N-[(1S)-1-[3-(difluoromethoxy)phenyl]ethyl]-2,2-dimethyl-4-(6-methyl-7H-pyrrolo[2,3-d]pyrimidin-4-yl)piperazine-1-carboxamide], the IC50 lay in the range of 1 to 10 µM at c-kit mutant D816V and 10 to 200 µM on c-kit kinase.

For the compound `Cc1cc2c(N3CCN(C(=O)N[C@@H](C)c4ccc(F)cc4)[C@H](C)C3)ncnc2[nH]1` [P-0646, (2R)-N-[(1S)-1-(4-fluorophenyl)ethyl]-2-methyl-4-(6-methyl-7H-pyrrolo[2,3-d]pyrimidin-4-yl)piperazine-1-carboxamide], the IC50 was in the range of 1 to 10 µM at c-kit mutant D816V and 10 to 200 µM on c-kit kinase.

For `Cc1cc2c(N3CCN(C(=O)N[C@@H](C)c4cccc(Cl)c4)[C@H](C)C3)ncnc2[nH]1` [P-0647, (2R)-N-[(1S)-1-(3-chlorophenyl)ethyl]-2-methyl-4-(6-methyl-7H-pyrrolo[2,3-d]pyrimidin-4-yl)piperazine-1-carboxamide], the IC50 at c-kit mutant D816V fell in the range of 0.0001 to 1 µM; on c-kit kinase, 1 to 10 µM.

For `Cc1cc2c(N3CCN(C(=O)N[C@@H](C)c4cccc(OC(F)F)c4)[C@H](C)C3)ncnc2[nH]1` [P-0648, (2R)-N-[(1S)-1-[3-(difluoromethoxy)phenyl]ethyl]-2-methyl-4-(6-methyl-7H-pyrrolo[2,3-d]pyrimidin-4-yl)piperazine-1-carboxamide], the results for the IC50 on c-kit mutant D816V and on c-kit kinase were 0.0001 to 1 µM and 10 to 200 µM, respectively.

Consider `COc1cc([C@H](C)NC(=O)N2CCN(c3ncnc4[nH]c(-c5ccc(F)cc5)cc34)C[C@H]2C)ccc1Cl` [P-0649, (2R)-N-[(1S)-1-(4-chloro-3-methoxy-phenyl)ethyl]-4-[6-(4-fluorophenyl)-7H-pyrrolo[2,3-d]pyrimidin-4-yl]-2-methyl-piperazine-1-carboxamide], for which the IC50 was 0.0001 to 1 µM on c-kit mutant D816V and 1 to 10 µM on c-kit kinase.

On to `COc1cc(-c2cc3c(N4CCN(C(=O)N[C@@H](C)c5cccc(Cl)c5)C(C)(C)C4)ncnc3[nH]2)ccn1` [P-0650, N-[(1S)-1-(3-chlorophenyl)ethyl]-4-[6-(2-methoxy-4-pyridyl)-7H-pyrrolo[2,3-d]pyrimidin-4-yl]-2,2-dimethyl-piperazine-1-carboxamide], for which the values for the IC50 at c-kit mutant D816V and on c-kit kinase were 0.0001 to 1 µM and 1 to 10 µM, respectively.

`COc1cc(-c2cc3c(C4=CCC(NS(=O)(=O)c5ccc(OC(F)(F)F)cc5)CC4)ncnc3[nH]2)ccn1` (stereo not shown) [P-0654, N-[4-[6-(2-methoxy-4-pyridyl)-7H-pyrrolo[2,3-d]pyrimidin-4-yl]cyclohex-3-en-1-yl]-4-(trifluoromethoxy)benzenesulfonamide]: the IC50 on c-kit mutant D816V is 0.0001 to 1 µM; at c-kit kinase, 10 to 200 µM.

For `O=S(=O)(Nc1ccc(-c2ncnc3[nH]c(Cl)cc23)cc1)c1ccc(OC(F)F)cc1` [P-0655, N-[4-(6-chloro-7H-pyrrolo[2,3-d]pyrimidin-4-yl)phenyl]-4-(difluoromethoxy)benzenesulfonamide], the IC50 at c-kit mutant D816V and on c-kit kinase was 1 to 10 µM throughout.

`CC1(C)C=C(c2cc3c(N4CCC(NS(=O)(=O)c5ccc(OC(F)(F)F)cc5)CC4)ncnc3[nH]2)CC(C)(C)N1` [P-0662, N-[1-[6-(2,2,6,6-tetramethyl-1,3-dihydropyridin-4-yl)-7H-pyrrolo[2,3-d]pyrimidin-4-yl]-4-piperidyl]-4-(trifluoromethoxy)benzenesulfonamide]: the IC50 at c-kit mutant D816V and at c-kit kinase was 1 to 10 µM throughout.

As for `Cc1nc(C)c(-c2cc3c(N4CCC(NS(=O)(=O)c5ccc(OC(F)(F)F)cc5)CC4)ncnc3[nH]2)s1` [P-0664, N-[1-[6-(2,4-dimethylthiazol-5-yl)-7H-pyrrolo[2,3-d]pyrimidin-4-yl]-4-piperidyl]-4-(trifluoromethoxy)benzenesulfonamide], the values for the IC50 at c-kit mutant D816V and on c-kit kinase were 0.0001 to 1 µM and 1 to 10 µM, respectively.

In the case of `CCc1ccc(S(=O)(=O)NC2CCN(c3ncnc4[nH]c(-c5cnn(C)c5)cc34)CC2)s1` [P-0665, 5-ethyl-N-[1-[6-(1-methylpyrazol-4-yl)-7H-pyrrolo[2,3-d]pyrimidin-4-yl]-4-piperidyl]thiophene-2-sulfonamide], the IC50 on c-kit mutant D816V and on c-kit kinase was 0.0001 to 1 µM each time.

Regarding `Cc1nn(C)cc1-c1cc2c(N3CCC(NS(=O)(=O)c4ccc(Cl)cc4)CC3)ncnc2[nH]1` [P-0667, 4-chloro-N-[1-[6-(1,3-dimethylpyrazol-4-yl)-7H-pyrrolo[2,3-d]pyrimidin-4-yl]-4-piperidyl]benzenesulfonamide], the IC50 on c-kit mutant D816V and at c-kit kinase was 0.0001 to 1 µM each time.

On to `Cc1nn(C)cc1-c1cc2c(N3CCC(NS(=O)(=O)c4ccc(OC(F)(F)F)cc4)CC3)ncnc2[nH]1` [P-0668, N-[1-[6-(1,3-dimethylpyrazol-4-yl)-7H-pyrrolo[2,3-d]pyrimidin-4-yl]-4-piperidyl]-4-(trifluoromethoxy)benzenesulfonamide], for which the IC50 at c-kit mutant D816V and at c-kit kinase was 0.0001 to 1 µM throughout.

With `O=S(=O)(NC1CCN(c2ncnc3[nH]c(C4=CCCC4)cc23)CC1)c1ccc(OC(F)(F)F)cc1` [P-0669, N-[1-[6-(cyclopenten-1-yl)-7H-pyrrolo[2,3-d]pyrimidin-4-yl]-4-piperidyl]-4-(trifluoromethoxy)benzenesulfonamide], the half-maximal inhibitory concentration (IC50) on c-kit mutant D816V and on c-kit kinase was 0.0001 to 1 µM in each case.

`Cc1ccc(S(=O)(=O)NC2CCN(c3ncnc4[nH]c(-c5cnn(C)c5)cc34)CC2C)cc1` (stereo not shown) [P-0672, 4-methyl-N-[3-methyl-1-[6-(1-methylpyrazol-4-yl)-7H-pyrrolo[2,3-d]pyrimidin-4-yl]-4-piperidyl]benzenesulfonamide]: the half-maximal inhibitory concentration (IC50) at c-kit mutant D816V and at c-kit kinase was 0.0001 to 1 µM throughout.
